For orientation: AC50 means the concentration at which the activity in the assay is half-maximal.

Calls of active or inactive are those of the source.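 The calls were made as follows: active = parasite count per well reduced by over 3 SD from the mean, with host cell number above 80% of untreated; inactive = the rest.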

This assay relates to L. donovani amastigotes in THP-1 macrophages, DAPI imaging, 72 h. Description: antileishmanial activity in infected macrophages – imaging, THP-1 host macrophages, single concentration (AID 977614).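 Also: signal is the parasite per host cell ratio from DAPI stained kinetoplasts and nuclei.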
On to `Cc1ccc(S(=O)(=O)N2C[C@@H]3[C@H](c4ccccc42)[C@@H](CO)N3Cc2cccnc2)cc1`, for which the AC50 was > 10 µM (inactive).
On to `C[C@@H]1CN([C@@H](C)CO)C(=O)CCCn2nncc2CO[C@H]1CN(C)C(=O)NC1CCCC1`, for which the AC50 was > 10 µM (inactive).
The same measure for `CNC[C@@H]1OCc2cn(nn2)CCCC(=O)N([C@@H](C)CO)C[C@H]1C`: > 10 µM (inactive).
`CNC[C@H]1OCc2cn(nn2)CCCC(=O)N([C@@H](C)CO)C[C@H]1C`: the AC50 is > 10 µM (inactive).
`CCNC[C@@H]1[C@H](c2ccccc2)[C@@H](CO)N1C(=O)Cc1ccccn1`: the AC50 is > 10 µM (inactive).
In the case of `CC(=O)N1[C@H](CO)[C@H](c2ccccc2)[C@@H]1CN(C)S(=O)(=O)c1ccccc1`, the AC50 was > 10 µM (inactive).
The same measure for `CNC[C@H]1OCc2cn(nn2)CCCC(=O)N([C@H](C)CO)C[C@@H]1C`: > 10 µM (inactive); for `C/C=C/c1ccc([C@H]2[C@H](CO)N(C(C)=O)[C@H]2CN(CC)C(=O)CN(C)C)cc1`: > 10 µM (inactive).
As for `O=C(C1CCOCC1)N1C[C@@H]2[C@H](c3ccccc31)[C@@H](CO)N2C(=O)Nc1ccccc1F`, the figure is > 10 µM (inactive).
As for `O=C(c1ccncc1)N1C[C@H]2[C@@H](c3ccccc31)[C@H](CO)N2Cc1ccccc1F`, the figure is > 10 µM (inactive).
Regarding `O=C(C1CCOCC1)N1C[C@@H]2[C@H](c3ccccc31)[C@H](CO)N2C(=O)Cc1ccccn1`, the AC50 is > 10 µM (inactive).
In the case of `C[C@@H]1CN([C@@H](C)CO)C(=O)CCCn2nncc2CO[C@@H]1CN(C)S(=O)(=O)c1cn(C)cn1`, the AC50 was > 10 µM (inactive).
The same measure for `COCC(=O)N(C[C@H]1N[C@H](CO)[C@@H]1c1ccc(-c2cncnc2)cc1)C(C)C`: > 10 µM (inactive); for `O=C(Nc1ccccc1F)N1C[C@H]2[C@@H](c3ccccc31)[C@H](CO)N2C(=O)Cc1cccnc1`: > 10 µM (inactive).
The same measure for `COCCN(C[C@@H]1[C@@H](c2ccccc2)[C@H](CO)N1C(C)=O)C(=O)c1cccnc1`: > 10 µM (inactive); for `CN1C[C@@H]2[C@H](c3ccccc31)[C@H](CO)N2C(=O)C1CCOCC1`: > 10 µM (inactive).
As for `O=S(=O)(c1ccccc1)N1[C@@H](CO)[C@@H]2c3ccccc3NC[C@@H]21`, the figure is > 10 µM (inactive).
For the compound `CN(C[C@@H]1N[C@H](CO)[C@@H]1c1ccc(C#CCC2CCCC2)cc1)S(C)(=O)=O`, the AC50 was > 10 µM (inactive).
Regarding `CCC(=O)NC[C@H]1[C@@H](c2ccc(-c3ccc(F)cc3)cc2)[C@@H](CO)N1C(=O)CC`, the AC50 is > 10 µM (inactive).
The same measure for `CC(=O)N1[C@H](CO)[C@@H](c2ccccc2)[C@H]1CNC(=O)CN1CCOCC1`: > 10 µM (inactive).
The same measure for `C[C@H](CO)N1C[C@H](C)[C@@H](CN(C)Cc2ccc3c(c2)OCCN3C)OCc2cnnn2CCCC1=O`: > 10 µM (inactive); for `C[C@H]1CN([C@@H](C)CO)C(=O)CCCn2nncc2CO[C@H]1CN(C)C(=O)Nc1ccnc(N2CCOCC2)c1`: > 10 µM (inactive); for `CCC(=O)N1[C@H](CO)[C@@H](c2ccccc2)[C@@H]1CN(C)C(=O)CN1CCOCC1`: > 10 µM (inactive).
Regarding `O=C(Cc1cccnc1)N1[C@H](CNCC2CCC2)[C@H](c2ccccc2)[C@@H]1CO`, the AC50 was > 10 µM (inactive).
Take `C[C@H]1CN([C@@H](C)CO)C(=O)CCCn2nncc2CO[C@H]1CN(C)Cc1ccccc1C(=O)O`: the AC50 is > 10 µM (inactive).
With `Cc1noc(C)c1NC(=O)N(C)C[C@@H]1OCc2cn(nn2)CCCC(=O)N([C@@H](C)CO)C[C@@H]1C`, the AC50 was > 10 µM (inactive).
The same measure for `CN(C[C@H]1[C@H](c2ccccc2)[C@H](CO)N1Cc1ccccn1)S(C)(=O)=O`: > 10 µM (inactive); for `C[C@@H]1CN([C@H](C)CO)C(=O)CCCn2nncc2CO[C@@H]1CN(C)Cc1cccc2c1OCCCO2`: > 10 µM (inactive); for `O=C(c1ccncc1)N1C[C@@H]2[C@H](c3ccccc31)[C@@H](CO)N2C(=O)CN1CCOCC1`: > 10 µM (inactive).
As for `COCC(=O)N1C[C@H]2[C@@H](c3ccccc31)[C@@H](CO)N2Cc1cc(F)ccc1F`, the figure is > 10 µM (inactive); as for `O=C(c1ccc2c(c1)OCO2)N1C[C@@H]2[C@H](c3ccccc31)[C@@H](CO)N2C(=O)CC1CC1`, > 10 µM (inactive); as for `C[C@@H]1CN([C@H](C)CO)C(=O)CCCn2nncc2CO[C@@H]1CN(C)Cc1cccc(C(F)(F)F)c1`, > 10 µM (inactive).
The same measure for `C[C@@H]1CN([C@H](C)CO)C(=O)CCCn2cc(nn2)CO[C@@H]1CN(C)C(=O)NC1CCCCC1`: > 10 µM (inactive).
In the case of `C[C@@H]1CN([C@H](C)CO)C(=O)CCCn2nncc2CO[C@H]1CN(C)Cc1ccc2c(c1)OCCN2C`, the AC50 was > 10 µM (inactive).
For the compound `C/C=C/c1ccc([C@H]2[C@@H](CO)N(C(=O)C3CC3)[C@@H]2CNC(=O)NC(C)C)cc1`, the AC50 was > 10 µM (inactive).
As for `C[C@@H]1CN([C@@H](C)CO)C(=O)CCCn2nncc2CO[C@H]1CN(C)C(=O)CCC(F)(F)F`, the figure is > 10 µM (inactive).
As for `O=C(c1ccccc1F)N1C[C@H]2[C@@H](c3ccccc31)[C@H](CO)N2Cc1ccc2c(c1)OCO2`, the figure is > 10 µM (inactive); as for `CN1C[C@H]2[C@@H](c3ccccc31)[C@@H](CO)N2Cc1ccccc1Cl`, > 10 µM (inactive); as for `COc1ccc(-c2ccc([C@@H]3[C@H](CN(C)S(C)(=O)=O)N[C@@H]3CO)cc2)cc1`, > 10 µM (inactive).
On to `O=C(NC[C@H]1N[C@@H](CO)[C@H]1c1ccc(-c2ccccc2F)cc1)c1ccccn1`, for which the AC50 was > 10 µM (inactive).
On to `COc1ccc(CN(C)C[C@H]2OCc3cnnn3CCCC(=O)N([C@H](C)CO)C[C@@H]2C)cc1`, for which the AC50 was > 10 µM (inactive).
`CC(=O)N1[C@H](CO)[C@@H](c2ccccc2)[C@@H]1CN(CC(C)C)C(=O)c1ccccn1`: the AC50 is > 10 µM (inactive).
Turning to `C[C@@H]1CN([C@H](C)CO)C(=O)CCCn2nncc2CO[C@@H]1CN(C)Cc1ccccc1C(=O)O`, the AC50 is > 10 µM (inactive).
The same measure for `C[C@@H]1CN([C@@H](C)CO)C(=O)CCCn2nncc2CO[C@H]1CN(C)C(=O)Nc1ccc2c(c1)OCCO2`: > 10 µM (inactive); for `C/C=C/c1ccc([C@@H]2[C@@H](CN(CC)C(=O)CN(C)C)N(C(C)=O)[C@H]2CO)cc1`: > 10 µM (inactive).
As for `CCN(C[C@H]1[C@H](c2ccc(C3=CCCCC3)cc2)[C@H](CO)N1CC1CC1)C(C)=O`, the figure is > 10 µM (inactive); as for `COCC(=O)N(C)C[C@@H]1[C@@H](c2ccccc2)[C@H](CO)N1C(=O)Cc1ccncc1`, > 10 µM (inactive).
As for `CN1C[C@H]2[C@@H](c3ccccc31)[C@H](CO)N2S(=O)(=O)c1ccccc1`, the figure is > 10 µM (inactive); as for `CC(=O)N1[C@@H]2CN(C(=O)c3ccc(F)cc3)c3ccccc3[C@@H]2[C@@H]1CO`, > 10 µM (inactive).
Regarding `CC(=O)NC[C@H]1[C@@H](c2ccc(C#Cc3ccccc3F)cc2)[C@@H](CO)N1C(C)=O`, the AC50 is > 10 µM (inactive).
The same measure for `C[C@H](CO)N1C[C@H](C)[C@H](CN(C)C(=O)Nc2ccccc2C(F)(F)F)OCc2cnnn2CCCC1=O`: > 10 µM (inactive); for `O=C(Nc1ccc(F)cc1)N1C[C@@H]2[C@H](c3ccccc31)[C@H](CO)N2C(=O)c1ccncc1`: > 10 µM (inactive); for `C/C=C/c1ccc([C@H]2[C@@H](CO)N(C(C)=O)[C@@H]2CNC(=O)c2ccccc2)cc1`: > 10 µM (inactive).
The same measure for `CC(=O)N1[C@@H](CO)[C@@H](c2ccccc2)[C@@H]1CN(CC(C)C)C(=O)c1ccccn1`: > 10 µM (inactive).
Regarding `COCC(=O)N1C[C@H]2[C@@H](c3ccccc31)[C@H](CO)N2Cc1cc(F)ccc1F`, the AC50 is > 10 µM (inactive).
The same measure for `Cc1noc(C)c1NC(=O)N(C)C[C@H]1OCc2cn(nn2)CCCC(=O)N([C@@H](C)CO)C[C@@H]1C`: > 10 µM (inactive); for `O=C(C1CCCCC1)N1[C@H](CO)[C@H]2c3ccccc3N(S(=O)(=O)c3ccccc3)C[C@H]21`: > 10 µM (inactive); for `CCCN1[C@H](CO)[C@H](c2ccc(C#Cc3ccccc3)cc2)[C@@H]1CNC1CCCC1`: > 10 µM (inactive).
In the case of `C[C@H](CO)N1C[C@H](C)[C@H](CN(C)C(=O)Nc2ccc(-c3cccs3)cc2)OCc2cnnn2CCCC1=O`, the AC50 is > 10 µM (inactive).
In the case of `CC(C)NC(=O)N1[C@H](CO)[C@H]2c3ccccc3NC[C@H]21`, the AC50 was > 10 µM (inactive).
The same measure for `CN(C[C@H]1[C@H](c2ccccc2)[C@@H](CO)N1CC1CC1)C(=O)c1ccc(F)cc1`: > 10 µM (inactive).
As for `CN(C)CC(=O)N1[C@@H](CO)[C@@H]2c3ccccc3N(C(=O)Cc3ccccc3)C[C@@H]21`, the figure is > 10 µM (inactive); as for `COCC(=O)N1[C@@H]2CN(C)c3ccccc3[C@@H]2[C@@H]1CO`, > 10 µM (inactive); as for `CCC(=O)N1[C@H](CO)[C@H]2c3ccccc3N(C(=O)Nc3ccc(Cl)cc3)C[C@H]21`, > 10 µM (inactive).
For the compound `O=C(c1ccc2c(c1)OCO2)N1C[C@H]2[C@@H](c3ccccc31)[C@H](CO)N2C(=O)CC1CC1`, the AC50 was > 10 µM (inactive).
As to `C[C@@H]1CN([C@H](C)CO)C(=O)CCCn2nncc2CO[C@@H]1CN(C)C(=O)c1ccc2ccn(C)c2c1`, the AC50 is > 10 µM (inactive).
As for `COCC(=O)N1[C@H](CO)[C@H]2c3ccccc3N(C)C[C@H]21`, the figure is > 10 µM (inactive).
Regarding `COc1ccccc1NC(=O)N1C[C@H]2[C@@H](c3ccccc31)[C@@H](CO)N2C(=O)C1CCCC1`, the AC50 is > 10 µM (inactive).
For the compound `C[C@H]1CN([C@@H](C)CO)C(=O)CCCn2nncc2CO[C@@H]1CN(C)C(=O)Nc1ccnc(N2CCOCC2)c1`, the AC50 is > 10 µM (inactive).
As for `CCCNC(=O)N1[C@H](CO)[C@H]2c3ccccc3N(C(=O)Nc3cccc(Cl)c3)C[C@H]21`, the figure is > 10 µM (inactive).

The values are drawn from PubChem BioAssay AID977614 (Broad Institute, 2014).
